Results: patent US8877748B2, “Heterocyclic fused anthraquinone derivatives, manufacturing method and pharmaceutical composition using thereof” (National Defense Medical Center, priority 2012, dated 2014)

Legend:
[1] = system: PC-3 prostate cancer cell line; assay: SRB assay cell viability, PC-3 prostate cancer cell line; type: cell-based, human; details: PC-3 prostate cancer cell line, Table II prints no unit, μM printed, read-out: SRB assay: 50% inhibition of cancer cell proliferation of sample concentration (IC50) of PC-3 prostate cancer cell line
HL-60, TB = assay: NCI one-dose screening, leukemia HL-60, TB; type: cell-based, human; details: 10 μM
MOLT-4 = assay: NCI one-dose screening, leukemia MOLT-4; type: cell-based, human; details: 10 μM
SR = assay: NCI one-dose screening, leukemia SR; type: cell-based, human; details: 10 μM
PRMI-8226 cell line = assay: NCI one-dose screening, leukemia PRMI-8226; type: cell-based, human; details: 10 μM
K562cell line = assay: NCI one-dose screening, leukemia K562; type: cell-based, human; details: 10 μM
EKVX = assay: NCI one-dose screening, non-small cell lung cancer EKVX; type: cell-based, human; details: 10 μM
HOP-62 = assay: NCI one-dose screening, non-small cell lung cancer HOP-62; type: cell-based, human; details: 10 μM
HOP-92 = assay: NCI one-dose screening, non-small cell lung cancer HOP-92; type: cell-based, human; details: 10 μM
NCI-H226 = assay: NCI one-dose screening, non-small cell lung cancer NCI-H226; type: cell-based, human; details: 10 μM
NCI-H23 = assay: NCI one-dose screening, non-small cell lung cancer NCI-H23; type: cell-based, human; details: 10 μM
NCI-H460 = assay: NCI one-dose screening, non-small cell lung cancer NCI-H460; type: cell-based, human; details: 10 μM
NCI-H522 = assay: NCI one-dose screening, non-small cell lung cancer NCI-H522; type: cell-based, human; details: 10 μM
A549/ATCC = assay: NCI one-dose screening, non-small cell lung cancer A549/ATCC; type: cell-based, human; details: 10 μM
COLO 205 = assay: NCI one-dose screening, colon cancer COLO 205; type: cell-based, human; details: 10 μM
HCC-2998 = assay: NCI one-dose screening, colon cancer HCC-2998; type: cell-based, human; details: 10 μM
HCT-116 = assay: NCI one-dose screening, colon cancer HCT-116; type: cell-based, human; details: 10 μM
HCT-15 = assay: NCI one-dose screening, colon cancer HCT-15; type: cell-based, human; details: 10 μM
KM12 = assay: NCI one-dose screening, colon cancer KM12; type: cell-based, human; details: 10 μM
HT29 = assay: NCI one-dose screening, colon cancer HT29; type: cell-based, human; details: 10 μM
SF-268 = assay: NCI one-dose screening, CNS cancer SF-268; type: cell-based, human; details: 10 μM
SF-295 = assay: NCI one-dose screening, CNS cancer SF-295; type: cell-based, human; details: 10 μM
SF-539 = assay: NCI one-dose screening, CNS cancer SF-539; type: cell-based, human; details: 10 μM
SNB-19 = assay: NCI one-dose screening, CNS cancer SNB-19; type: cell-based, human; details: 10 μM
SNB-75 = assay: NCI one-dose screening, CNS cancer SNB-75; type: cell-based, human; details: 10 μM
U251 = assay: NCI one-dose screening, CNS cancer U251; type: cell-based, human; details: 10 μM
LOX IMVI = assay: NCI one-dose screening, melanoma LOX IMVI; type: cell-based, human; details: 10 μM
MALME-3M = assay: NCI one-dose screening, melanoma MALME-3M; type: cell-based, human; details: 10 μM
M14 = assay: NCI one-dose screening, melanoma M14; type: cell-based, human; details: 10 μM
UACC-62 = assay: NCI one-dose screening, melanoma UACC-62; type: cell-based, human; details: 10 μM
UACC-257 = assay: NCI one-dose screening, melanoma UACC-257; type: cell-based, human; details: 10 μM
SK-MEL-2 = assay: NCI one-dose screening, melanoma SK-MEL-2; type: cell-based, human; details: 10 μM
SK-MEL-28 = assay: NCI one-dose screening, melanoma SK-MEL-28; type: cell-based, human; details: 10 μM
SK-MEL-5 = assay: NCI one-dose screening, melanoma SK-MEL-5; type: cell-based, human; details: 10 μM
IGROV1 = assay: NCI one-dose screening, ovarian cancer IGROV1; type: cell-based, human; details: 10 μM
OVCAR-3 = assay: NCI one-dose screening, ovarian cancer OVCAR-3; type: cell-based, human; details: 10 μM
OVCAR-5 = assay: NCI one-dose screening, ovarian cancer OVCAR-5; type: cell-based, human; details: 10 μM
OVCAR-8 = assay: NCI one-dose screening, ovarian cancer OVCAR-8; type: cell-based, human; details: 10 μM
SK-OV-3 = assay: NCI one-dose screening, ovarian cancer SK-OV-3; type: cell-based, human; details: 10 μM
786-O = assay: NCI one-dose screening, renal cancer 786-O; type: cell-based, human; details: 10 μM
CAKI-1 = assay: NCI one-dose screening, renal cancer CAKI-1; type: cell-based, human; details: 10 μM
[2] = NCI one-dose screening, renal cancer A489; type: cell-based, human; details: 10 μM
ACHN = assay: NCI one-dose screening, renal cancer ACHN; type: cell-based, human; details: 10 μM
SN12C = assay: NCI one-dose screening, renal cancer SN12C; type: cell-based, human; details: 10 μM
TK-10 = assay: NCI one-dose screening, renal cancer TK-10; type: cell-based, human; details: 10 μM
UO-31 = assay: NCI one-dose screening, renal cancer UO-31; type: cell-based, human; details: 10 μM
RXF, 393 = assay: NCI one-dose screening, renal cancer RXF, 393; type: cell-based, human; details: 10 μM
DU145 = assay: NCI one-dose screening, prostate cancer DU145; type: cell-based, human; details: 10 μM
PC-3 = assay: NCI one-dose screening, prostate cancer PC-3; type: cell-based, human; details: 10 μM
MCF7 = assay: NCI one-dose screening, breast cancer MCF7; type: cell-based, human; details: 10 μM
HS 578-T = assay: NCI one-dose screening, breast cancer HS 578-T; type: cell-based, human; details: 10 μM; Breast cancer
MDA-MB-231/ATCC = assay: NCI one-dose screening, breast cancer MDA-MB-231/ATCC; type: cell-based, human; details: 10 μM
MDA-MB-468 = assay: NCI one-dose screening, breast cancer MDA-MB-468; type: cell-based, human; details: 10 μM
NCl/ADR-RES = assay: NCI one-dose screening, breast cancer NCl/ADR-RES; type: cell-based, human; details: 10 μM; listed under Ovarian cancer
BT-549 = assay: NCI one-dose screening, breast cancer BT-549; type: cell-based, human; details: 10 μM
T-47D = assay: NCI one-dose screening, breast cancer T-47D; type: cell-based, human; details: 10 μM
MDA, -MB-435 = assay: NCI one-dose screening, breast cancer MDA, -MB-435; type: cell-based, human; details: 10 μM; listed under Melanoma
human tumor cell lines = assay: NCI one-dose screening, Mean / Delta / Range of growth percent over all tested cell lines; type: cell-based; details: 10 μM

4-(o-phenylmethyl thio)anthra[2,1-c] [1,2,5]thiadiazol-6,11-dione [C48]
IC50 [1]: > 15 µM
Growth Percent HL-60(TB) (HL-60, TB): −79.53%
Growth Percent MOLT-4 (MOLT-4): 67.31%
Growth Percent SR (SR): 23.00%
Growth Percent RPMI-8226 (PRMI-8226 cell line): 48.56%
Growth Percent K562 (K562cell line): 32.30%
Growth Percent EKVX (EKVX): 104.56%
Growth Percent HOP-62 (HOP-62): 59.51%
Growth Percent HOP-92 (HOP-92): 89.91%
Growth Percent NCI-H226 (NCI-H226): 95.71%
Growth Percent NCI-H23 (NCI-H23): 53.21%
Growth Percent NCI-H460 (NCI-H460): 88.86%
Growth Percent NCI-H522 (NCI-H522): 74.81%
Growth Percent A549/ATCC (A549/ATCC): 104.68%
Growth Percent COLO 205 (COLO 205): 99.23%
Growth Percent HCC-2998 (HCC-2998): 124.00%
Growth Percent HCT-116 (HCT-116): 92.15%
Growth Percent HCT-15 (HCT-15): 38.57%
Growth Percent KM12 (KM12): 103.11%
Growth Percent HT29 (HT29): 104.31%
Growth Percent SF-268 (SF-268): 74.73%
Growth Percent SF-295 (SF-295): 104.92%
Growth Percent SF-539 (SF-539): 78.04%
Growth Percent SNB-19 (SNB-19): 103.54%
Growth Percent SNB-75 (SNB-75): 76.30%
Growth Percent U251 (U251): 62.36%
Growth Percent LOX IMVI (LOX IMVI): 30.01%
Growth Percent MALME-3M (MALME-3M): 96.77%
Growth Percent M14 (M14): 94.25%
Growth Percent UACC-62 (UACC-62): 90.69%
Growth Percent UACC-257 (UACC-257): 87.32%
Growth Percent SK-MEL-2 (SK-MEL-2): 73.29%
Growth Percent SK-MEL-28 (SK-MEL-28): 105.73%
Growth Percent SK-MEL-5 (SK-MEL-5): 87.54%
Growth Percent IGROV1 (IGROV1): 80.06%
Growth Percent OVCAR-3 (OVCAR-3): 5.30%
Growth Percent OVCAR-5 (OVCAR-5): 126.28%
Growth Percent OVCAR-8 (OVCAR-8): 76.29%
Growth Percent SK-OV-3 (SK-OV-3): 93.79%
Growth Percent 786-0 (786-O): 100.36%
Growth Percent CAKI-1 (CAKI-1): 81.47%
Growth Percent A498 [2]: 85.54%
Growth Percent ACHN (ACHN): 89.76%
Growth Percent SN12C (SN12C): 85.97%
Growth Percent TK-10 (TK-10): 122.97%
Growth Percent UO-31 (UO-31): 62.14%
Growth Percent RXF 393 (RXF, 393): 95.88%
Growth Percent DU145 (DU145): 101.53%
Growth Percent PC-3 (PC-3): 73.26%
Growth Percent MCF7 (MCF7): 66.12%
Growth Percent HS 578T (HS 578-T): 83.69%
Growth Percent MDA-MB-231/ATCC (MDA-MB-231/ATCC): 60.72%
Growth Percent MDA-MB-468 (MDA-MB-468): 53.68%
Growth Percent NCI/ADR-RES (NCl/ADR-RES): 59.53%
Growth Percent BT-549 (BT-549): 95.35%
Growth Percent T-47D (T-47D): 51.89%
Growth Percent MDA-MB-435 (MDA, -MB-435): 80.61%
Growth Percent Delta (human tumor cell lines; delta over all cell lines): 75.31%
Growth Percent Mean (human tumor cell lines; mean over all cell lines): 80.61%
Growth Percent Range (human tumor cell lines; range over all cell lines): 120.98%
